System: tubulin
Experiment: turbidimetric tubulin polymerisation assay with irradiation
Format: biochemical
Conditions: for tubulin polymerisation inhibition: 50 and 25 μM
Experimental: Turbidimetric tubulin polymerisation assays were performed as described in the literature^[29], following the increase in absorbance at 340 nm, but with the addition of irradiation supplied by the monochromator setup described in Part B. Two wavelengths were chosen for each compound, λE->Z (chosen to effect bulk trans->cis isomerisation, typically 390 nm), and λZ->E (chosen to effect bulk cis->trans isomerisation, typically 505 nm). The raw absorbance A(t) could be more clearly discussed by first correcting for any change in azoaryl absorbance over time by subtracting the absorbance of a control run performed without tubulin, yielding the corrected absorbance A*(t), and then taking its derivative R=dA*(t)/dt. Experiments were performed under six sets of conditions to illustrate the light control of tubulin polymerisation inhibition effected by the compounds of the invention: (a) in the dark (typical result: large R at the start decreasing rapidly over time), or (b) with constant irradiation at λE->Z (typical result: small R throughout the experiment), or (c) with constant irradiation at λZ->E (typical result: moderate R at the start decreasing slowly over time), or (d) with irradiation at λE->Z for an initial period then darkness (typical result: initial period with small R, then R increases after a while), or (e) with irradiation at λE->Z for a given period (typically 30 min) then irradiation at λZ->E (typical result: 30 minutes with small R, then R increases quickly to a moderate value which decreases slowly over time), or (f) with irradiation at λE->Z for a given period (usually 30 min) then a short irradiation at λZ->E (usually 30 seconds) then darkness (typical result: 30 minutes with small R, then R increases quickly to a moderate-to-large value which decreases slowly over time); the last three conditions required correction of A(t) to A*(t) to reveal the changes in absorption which were due only to tubulin polymerisation. It would be costly to determine light-dependent in vitro tubulin polymerisation IC50 values for each compound, eg. under protocols (a) and (b) (and/or (c)). This was not performed here since it was considered that such parameters have little predictive value in their intended complex biological settings, especially in light of the importance of biodistribution, tubulin-binding kinetics and lability (rather than thermodynamic binding strength) for tubulin disruption in biological settings.
Table 3 below illustrates typical results from experiments of type (a) (“DARK”) and (b) (“390 nm”) as described above, with compound (I.1) at concentrations well above the IC50 for the toxic regime, compared to a PBS-only control CTRL (no I.1 present).

## COc1ccc(N=Nc2cc(OC)c(OC)c(OC)c2)cc1O [I.1, 2-methoxy-5-((3,4,5-trimethoxyphenyl)diazenyl)phenol]
25 μM, 390 nm, 0.0 min
  A(λ = 340 nm): 0.0000
25 μM, 390 nm, 0.5 min
  A(λ = 340 nm): −0.0026
25 μM, 390 nm, 1.0 min
  A(λ = 340 nm): −0.0022
25 μM, 390 nm, 1.5 min
  A(λ = 340 nm): −0.0022
25 μM, 390 nm, 2.0 min
  A(λ = 340 nm): −0.0010
25 μM, 390 nm, 3.0 min
  A(λ = 340 nm): 0.0004
25 μM, 390 nm, 3.5 min
  A(λ = 340 nm): 0.0029
25 μM, 390 nm, 4.0 min
  A(λ = 340 nm): 0.0027
25 μM, 390 nm, 4.5 min
  A(λ = 340 nm): 0.0034
25 μM, 390 nm, 5.0 min
  A(λ = 340 nm): 0.0100
25 μM, 390 nm, 5.5 min
  A(λ = 340 nm): 0.0094
25 μM, 390 nm, 6.0 min
  A(λ = 340 nm): 0.0132
25 μM, 390 nm, 6.5 min
  A(λ = 340 nm): 0.0174
25 μM, 390 nm, 7.0 min
  A(λ = 340 nm): 0.0171
25 μM, 390 nm, 7.5 min
  A(λ = 340 nm): 0.0222
25 μM, 390 nm, 8.0 min
  A(λ = 340 nm): 0.0241
25 μM, 390 nm, 8.5 min
  A(λ = 340 nm): 0.0259
25 μM, 390 nm, 9.0 min
  A(λ = 340 nm): 0.0288
25 μM, 390 nm, 9.5 min
  A(λ = 340 nm): 0.0313
25 μM, 390 nm, 10.0 min
  A(λ = 340 nm): 0.0341
25 μM, 390 nm, 10.5 min
  A(λ = 340 nm): 0.0358
25 μM, 390 nm, 11.0 min
  A(λ = 340 nm): 0.0402
25 μM, 390 nm, 11.5 min
  A(λ = 340 nm): 0.0413
25 μM, 390 nm, 12.0 min
  A(λ = 340 nm): 0.0443
25 μM, 390 nm, […]
  A(λ = 340 nm): −0.0001
25 μM, DARK, 0.0 min
  A(λ = 340 nm): 0.0000
25 μM, DARK, 0.5 min
  A(λ = 340 nm): 0.0001
25 μM, DARK, 1.0 min
  A(λ = 340 nm): −0.0016
25 μM, DARK, 1.5 min
  A(λ = 340 nm): 0.0018
25 μM, DARK, 2.0 min
  A(λ = 340 nm): 0.0119
25 μM, DARK, 3.0 min
  A(λ = 340 nm): 0.0492
25 μM, DARK, 3.5 min
  A(λ = 340 nm): 0.0689
25 μM, DARK, 4.0 min
  A(λ = 340 nm): 0.0851
25 μM, DARK, 4.5 min
  A(λ = 340 nm): 0.0984
25 μM, DARK, 5.0 min
  A(λ = 340 nm): 0.1073
25 μM, DARK, 5.5 min
  A(λ = 340 nm): 0.1133
25 μM, DARK, 6.0 min
  A(λ = 340 nm): 0.1150
25 μM, DARK, 6.5 min
  A(λ = 340 nm): 0.1212
25 μM, DARK, 7.0 min
  A(λ = 340 nm): 0.1249
25 μM, DARK, 7.5 min
  A(λ = 340 nm): 0.1228
25 μM, DARK, 8.0 min
  A(λ = 340 nm): 0.1250
25 μM, DARK, 8.5 min
  A(λ = 340 nm): 0.1259
25 μM, DARK, 9.0 min
  A(λ = 340 nm): 0.1240
25 μM, DARK, 9.5 min
  A(λ = 340 nm): 0.1276
25 μM, DARK, 10.0 min
  A(λ = 340 nm): 0.1276
25 μM, DARK, 10.5 min
  A(λ = 340 nm): 0.1255
25 μM, DARK, 11.0 min
  A(λ = 340 nm): 0.1290
25 μM, DARK, 11.5 min
  A(λ = 340 nm): 0.1299
25 μM, DARK, 12.0 min
  A(λ = 340 nm): 0.1333
25 μM, DARK, […]
  A(λ = 340 nm): 0.0274
50 μM, 390 nm, 0.0 min
  A(λ = 340 nm): 0.0000
50 μM, 390 nm, 0.5 min
  A(λ = 340 nm): 0.0014
50 μM, 390 nm, 1.0 min
  A(λ = 340 nm): 0.0020
50 μM, 390 nm, 1.5 min
  A(λ = 340 nm): 0.0033
50 μM, 390 nm, 2.0 min
  A(λ = 340 nm): 0.0027
50 μM, 390 nm, 3.0 min
  A(λ = 340 nm): 0.0066
50 μM, 390 nm, 3.5 min
  A(λ = 340 nm): 0.0074
50 μM, 390 nm, 4.0 min
  A(λ = 340 nm): 0.0100
50 μM, 390 nm, 4.5 min
  A(λ = 340 nm): 0.0084
50 μM, 390 nm, 5.0 min
  A(λ = 340 nm): 0.0122
50 μM, 390 nm, 5.5 min
  A(λ = 340 nm): 0.0166
50 μM, 390 nm, 6.0 min
  A(λ = 340 nm): 0.0163
50 μM, 390 nm, 6.5 min
  A(λ = 340 nm): 0.0172
50 μM, 390 nm, 7.0 min
  A(λ = 340 nm): 0.0213
50 μM, 390 nm, 7.5 min
  A(λ = 340 nm): 0.0209
50 μM, 390 nm, 8.0 min
  A(λ = 340 nm): 0.0221
50 μM, 390 nm, 8.5 min
  A(λ = 340 nm): 0.0268
50 μM, 390 nm, 9.0 min
  A(λ = 340 nm): 0.0268
50 μM, 390 nm, 9.5 min
  A(λ = 340 nm): 0.0293
50 μM, 390 nm, 10.0 min
  A(λ = 340 nm): 0.0320
50 μM, 390 nm, 10.5 min
  A(λ = 340 nm): 0.0318
50 μM, 390 nm, 11.0 min
  A(λ = 340 nm): 0.0327
50 μM, 390 nm, 11.5 min
  A(λ = 340 nm): 0.0333
50 μM, 390 nm, 12.0 min
  A(λ = 340 nm): 0.0359
50 μM, 390 nm, […]
  A(λ = 340 nm): 0.0052
50 μM, DARK, 0.0 min
  A(λ = 340 nm): 0.0000
50 μM, DARK, 0.5 min
  A(λ = 340 nm): 0.0010
50 μM, DARK, 1.0 min
  A(λ = 340 nm): 0.0014
50 μM, DARK, 1.5 min
  A(λ = 340 nm): 0.0034
50 μM, DARK, 2.0 min
  A(λ = 340 nm): 0.0128
50 μM, DARK, 3.0 min
  A(λ = 340 nm): 0.0552
50 μM, DARK, 3.5 min
  A(λ = 340 nm): 0.0734
50 μM, DARK, 4.0 min
  A(λ = 340 nm): 0.0926
50 μM, DARK, 4.5 min
  A(λ = 340 nm): 0.1046
50 μM, DARK, 5.0 min
  A(λ = 340 nm): 0.1139
50 μM, DARK, 5.5 min
  A(λ = 340 nm): 0.1209
50 μM, DARK, 6.0 min
  A(λ = 340 nm): 0.1269
50 μM, DARK, 6.5 min
  A(λ = 340 nm): 0.1284
50 μM, DARK, 7.0 min
  A(λ = 340 nm): 0.1262
50 μM, DARK, 7.5 min
  A(λ = 340 nm): 0.1379
50 μM, DARK, 8.0 min
  A(λ = 340 nm): 0.1338
50 μM, DARK, 8.5 min
  A(λ = 340 nm): 0.1359
50 μM, DARK, 9.0 min
  A(λ = 340 nm): 0.1367
50 μM, DARK, 9.5 min
  A(λ = 340 nm): 0.1374
50 μM, DARK, 10.0 min
  A(λ = 340 nm): 0.1397
50 μM, DARK, 10.5 min
  A(λ = 340 nm): 0.1370
50 μM, DARK, 11.0 min
  A(λ = 340 nm): 0.1405
50 μM, DARK, 11.5 min
  A(λ = 340 nm): 0.1417
50 μM, DARK, 12.0 min
  A(λ = 340 nm): 0.1402
50 μM, DARK, […]
  A(λ = 340 nm): 0.0305
390 nm irradiation
  tubulin polymerisation inhibition: very strongly inhibited
In the dark
  tubulin polymerisation inhibition: not inhibited
